Assay results published in BindingDB's records for doi:10.7270/Q2PR7TCX (The Scripps Research Institute Molecular Screening Center, 2007).
Counter-ions that a name gives are not always drawn.

Target: Steroidogenic factor 1 (Homo sapiens, UniProt Q13285)
Assay: SF-1 inhibitors in Gal4 reporter counter-screen, dose response, counter-screen for RORA inhibitor project, cell-based, CHO-K1, Gal4-SF-1 LBD, luciferase luminescence (AID 611)
Conditions: not given

Steroidogenic factor 1, sequence (Q13285 whole entry, the tested form may be a part): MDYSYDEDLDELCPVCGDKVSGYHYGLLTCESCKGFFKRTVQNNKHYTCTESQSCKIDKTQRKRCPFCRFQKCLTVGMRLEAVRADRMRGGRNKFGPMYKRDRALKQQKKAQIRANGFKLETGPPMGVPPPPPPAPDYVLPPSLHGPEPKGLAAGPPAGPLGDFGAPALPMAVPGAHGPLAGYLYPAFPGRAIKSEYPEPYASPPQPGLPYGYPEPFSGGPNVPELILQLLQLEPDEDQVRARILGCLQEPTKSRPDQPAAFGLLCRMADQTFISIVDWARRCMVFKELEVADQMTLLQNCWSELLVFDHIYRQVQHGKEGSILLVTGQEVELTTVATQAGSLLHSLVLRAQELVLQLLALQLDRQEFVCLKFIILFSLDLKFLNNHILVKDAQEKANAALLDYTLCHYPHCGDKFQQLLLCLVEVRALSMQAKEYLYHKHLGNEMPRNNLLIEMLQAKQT

Structure (SMILES) | IC50 [µM]
c1ccc(-c2noc(-c3ccc4c(c3)OCO4)n2)nc1 [2-[5-(1,3-benzodioxol-5-yl)-1,2,4-oxadiazol-3-yl]pyridine] | 1.26
c1ccc(-c2noc(-c3ccc4ccccc4c3)n2)nc1 [2-[5-(2-naphthyl)-1,2,4-oxadiazol-3-yl]pyridine] | 0.867
Clc1cccc(-c2nc(-c3ccccn3)no2)c1 [2-[5-(3-Chloro-phenyl)-[1,2,4]oxadiazol-3-yl]-pyridine] | 5.41
O=S1(=O)C=C(Sc2nc3ccccc3s2)c2ccccc21 [2-[(1,1-dioxido-1-benzothien-3-yl)thio]-1,3-benzothiazole] | 2.67
O=C(CSc1nnnn1C1CC2CCC1C2)Nc1ccnc2ccccc12 (centres undefined) [2-[(1-bicyclo[2.2.1]hept-2-yl-1H-tetrazol-5-yl)thio]-N-4-quinolinylacetamide] | 0.444
Cc1cc(C=c2sc3nc4ccccc4n3c2=O)c(C)n1-c1ccccn1 [2-[(2,5-dimethyl-1-pyridin-2-yl-pyrrol-3-yl)methylidene]-[1,3]thiazolo[3,2-a]benzimidazol-1-one] | > 0.00503
N#Cc1c(NC(=O)CSc2nc(N)cc(=O)[nH]2)sc2c1CCCCCC2 [2-[(6-amino-4-oxo-1H-pyrimidin-2-yl)sulfanyl]-N-(3-cyano-4,5,6,7,8,9-hexahydrocycloocta[b]thiophen-2-yl)acetamide] | 14.6
COc1cccc(NC(=O)CSc2nnc(-c3cc(C)n(-c4ccccc4)c3C)o2)c1 [2-[[5-(2,5-dimethyl-1-phenyl-3-pyrrolyl)-1,3,4-oxadiazol-2-yl]thio]-N-(3-methoxyphenyl)acetamide] | 3.76
CCOC(=O)c1c(N)sc(C(=O)Nc2ccc3c(c2)OCO3)c1C [2-amino-5-(1,3-benzodioxol-5-ylcarbamoyl)-4-methyl-thiophene-3-carboxylic acid ethyl ester] | 8.33
CCc1nn2cc(-c3ccccc3)nc2s1 [2-ethyl-6-phenyl-imidazo[2,1-b][1,3,4]thiadiazole] | > 3.67
CCCc1ccc(-c2ccc(F)c(N)c2)nc1 [2-fluoranyl-5-(5-propylpyridin-2-yl)aniline] | 6
c1coc(CNc2ncnc3ccccc23)c1 [2-furfuryl(quinazolin-4-yl)amine;hydrochloride] | 17.3
c1ccc(-c2cn3c4c(sc3n2)CCCC4)cc1 [2-phenyl-5,6,7,8-tetrahydroimidazo[2,1-b][1,3]benzothiazole] | 4.27
N#CC(C#N)=c1ccc2c(c1)NC1(CCCCC1)N=2 [2-spiro[3H-benzimidazole-2,1'-cyclohexane]-5-ylidenepropanedinitrile] | 9.07
Cc1ccc(-c2nc3nc4ccccc4nc3n2Cc2ccco2)cc1 [3-(2-furanylmethyl)-2-(4-methylphenyl)imidazo[4,5-b]quinoxaline] | > 33
CCOc1ccc(-c2noc(CCC(=O)O)n2)cc1 [3-(3-p-phenetyl-1,2,4-oxadiazol-5-yl)propionic acid] | 8.46
Cc1ccc(-c2cc3c(nn2)-c2ccccc2C3=O)cc1 [3-(4-methylphenyl)-5H-indeno[1,2-c]pyridazin-5-one] | 2.62
COc1cc(OC)cc(-c2cc3nc(C)c(CCC(=O)O)c(C)n3n2)c1 [3-[2-(3,5-dimethoxyphenyl)-5,7-dimethyl-6-pyrazolo[1,5-a]pyrimidinyl]propanoic acid] | 0.74
CN(C)C(=O)CCc1nc(-c2ccc(C(C)(C)C)cc2)no1 [3-[3-(4-tert-butylphenyl)-1,2,4-oxadiazol-5-yl]-N,N-dimethyl-propanamide] | 1.1
CCNC(=O)CCc1nc(-c2ccc(C(C)(C)C)cc2)no1 [3-[3-(4-tert-butylphenyl)-1,2,4-oxadiazol-5-yl]-N-ethyl-propanamide] | 0.0417
CNC(=O)CCc1nc(-c2ccc(C(C)(C)C)cc2)no1 [3-[3-(4-tert-butylphenyl)-1,2,4-oxadiazol-5-yl]-N-methyl-propanamide] | 0.075
CC(C)(C)c1ccc(-c2noc(CCC(N)=O)n2)cc1 [3-[3-(4-tert-butylphenyl)-1,2,4-oxadiazol-5-yl]propanamide] | 0.063
O=C(O)c1cccc(COc2ccccc2Cl)c1 [3-[(2-chloranylphenoxy)methyl]benzoic acid] | 0.582

Structure (SMILES) | IC50 [µM]
O=C(O)c1cccc(COc2ccc(CO)cc2Cl)c1 [3-[(2-chloro-4-methylol-phenoxy)methyl]benzoic acid] | 0.329
Cc1cc(C(=O)Nc2cccc(C(=O)O)c2)oc1C [3-[(4,5-dimethyl-2-furoyl)amino]benzoic acid] | 2.16
CCOc1ccc(OCc2cccc(C(=O)O)c2)cc1 [3-[(4-ethoxyphenoxy)methyl]benzoic acid] | 0.274
COc1ccc(OCc2cccc(C(=O)O)c2)cc1 [3-[(4-methoxyphenoxy)methyl]benzoic acid] | 0.37
O=C(c1ccc(Cl)cc1)N1CCCCC(Sc2nnc(-c3ccc4c(c3)OCO4)o2)C1=O (centres undefined) [3-[[5-(1,3-benzodioxol-5-yl)-1,3,4-oxadiazol-2-yl]sulfanyl]-1-(4-chlorobenzoyl)azepan-2-one] | 1.46
Cc1cc(C)cc(Nc2ccc(C(=O)O)cc2N)c1 [3-amino-4-(3,5-dimethylanilino)benzoic acid] | > 99
Cc1ccsc1C(=O)OCC(=O)c1cc(C)n(CC2CCCO2)c1C (centres undefined) [3-methyl-2-thiophenecarboxylic acid [2-[2,5-dimethyl-1-(2-oxolanylmethyl)-3-pyrrolyl]-2-oxoethyl] ester] | > 0.0453
Clc1ccc(-n2ncc3c(N4CCCCCC4)ncnc32)cc1 [4-(1-azepanyl)-1-(4-chlorophenyl)pyrazolo[3,4-d]pyrimidine] | 0.846
Cc1ccnc(NC(=O)CCCOc2cc(=O)n(C)c3ccccc23)c1 [4-(1-methyl-2-oxidanylidene-quinolin-4-yl)oxy-N-(4-methylpyridin-2-yl)butanamide] | 8.98
COc1ccc(-c2cc(C(F)(F)F)nc(S(C)(=O)=O)n2)cc1OC [4-(3,4-dimethoxyphenyl)-2-methylsulfonyl-6-(trifluoromethyl)pyrimidine] | 7.15
COC(=O)c1ccc(-c2nc(-c3cccs3)no2)cc1 [4-(3-thiophen-2-yl-1,2,4-oxadiazol-5-yl)benzoic acid methyl ester] | > 3.67
CCOc1ccc(-c2cc(CCCC(=O)NCCc3ccc(OC)c(OC)c3OC)no2)cc1 [4-(5-p-phenetylisoxazol-3-yl)-N-[2-(2,3,4-trimethoxyphenyl)ethyl]butyramide] | 6.37
Cc1ccc2[nH]c3c(N4CCCCCC4)ncnc3c2c1 [4-(azepan-1-yl)-8-methyl-5H-pyrimido[5,4-b]indole] | 7.45
CC1CCCCC1NS(=O)(=O)c1ccc(S(=O)(=O)NCc2ccncc2)cc1 (centres undefined) [4-N-(2-methylcyclohexyl)-1-N-(pyridin-4-ylmethyl)benzene-1,4-disulfonamide] | 8.38
CCN(C1CCCCC1)S(=O)(=O)c1ccc(S(=O)(=O)NCc2ccncc2)cc1 [4-N-cyclohexyl-4-N-ethyl-1-N-(pyridin-4-ylmethyl)benzene-1,4-disulfonamide] | 9.51
Cc1cccc(-n2ncc3c(N4CCOCC4)ncnc32)c1 [4-[1-(3-methylphenyl)-4-pyrazolo[3,4-d]pyrimidinyl]morpholine] | > 3.67
CCOC(=O)N1CCN(C(=O)C2CCN(c3ncnc4c3sc3cccc(F)c34)CC2)CC1 [4-[1-(9-fluorobenzothiopheno[3,2-d]pyrimidin-4-yl)isonipecotoyl]piperazine-1-carboxylic acid ethyl ester] | 6.51
COc1ccc(OC)c(Nc2nc(-c3ccc(O)c(O)c3)cs2)c1 [4-[2-(2,5-Dimethoxy-phenylamino)-thiazol-4-yl]-benzene-1,2-diol] | 7.17
COc1ccccc1-c1nnc2sc(-c3ccc(N(C)C)cc3)nn12 [4-[3-(2-methoxyphenyl)-[1,2,4]triazolo[3,4-b][1,3,4]thiadiazol-6-yl]-N,N-dimethyl-aniline] | 3.24
COc1ccc(-c2noc(CCCC(=O)O)n2)cc1 [4-[3-(4-methoxyphenyl)-1,2,4-oxadiazol-5-yl]butanoic acid] | 2.72
Cc1ccc(-c2noc(CCCC(=O)Nc3cccnc3)n2)cc1 [4-[3-(4-methylphenyl)-1,2,4-oxadiazol-5-yl]-N-(3-pyridinyl)butanamide] | 8.03
Fc1ccc2[nH]c3c(N4CCN(Cc5ccc6c(c5)OCO6)CC4)ncnc3c2c1 [4-[4-(1,3-benzodioxol-5-ylmethyl)-1-piperazinyl]-8-fluoro-5H-pyrimido[5,4-b]indole] | 3.38
COc1ccc2c(c1)[nH]c1c(N3CCN(Cc4ccc5c(c4)OCO5)CC3)ncnc12 [4-[4-(1,3-benzodioxol-5-ylmethyl)piperazin-1-yl]-7-methoxy-5H-pyrimido[5,4-b]indole] | 7.25

Same assay, conditions: inactive by the depositor's call

Structure (SMILES) | IC50 [µM]
Cc1cc(C)nc(SC2=CS(=O)(=O)c3ccccc32)n1 [2-[(1,1-dioxido-1-benzothien-3-yl)thio]-4,6-dimethylpyrimidine] | 13
Cc1cccc2cc3c(nc12)S/C(=N\CC1CCCO1)N(Cc1ccco1)C3 (centres undefined) [3-(2-furanylmethyl)-9-methyl-N-(2-oxolanylmethyl)-4H-[1,3]thiazino[6,5-b]quinolin-2-imine] | 63.7
O=C(O)CCSc1nc2ccccc2s1 [3-(Benzothiazol-2-ylsulfanyl)-propionic acid] | 19.1
Cc1ccccc1NC(=O)N1CCCC(c2nc(-c3ccc(C(C)C)cc3)no2)C1 (centres undefined) [3-[3-(4-Isopropyl-phenyl)-[1,2,4]oxadiazol-5-yl]-piperidine-1-carboxylic acid o-tolylamide] | 12.4
Cc1nc2sccn2c1-c1csc(NCc2ccccc2)n1 [4-(6-methyl-5-imidazo[2,1-b]thiazolyl)-N-(phenylmethyl)-2-thiazolamine] | 11.1
CCCCN(CCCC)S(=O)(=O)c1ccc(C(=O)Nc2nnc(CSC)o2)cc1 [4-(dibutylsulfamoyl)-N-[5-(methylsulfanylmethyl)-1,3,4-oxadiazol-2-yl]benzamide] | 24.4
Cc1ccc(S(=O)(=O)NCc2ccncc2)cc1 [4-Methyl-N-pyridin-4-ylmethyl-benzenesulfonamide] | 11.6
COc1ccccc1-c1cc(C(F)(F)F)nc(S(=O)(=O)CCCC(=O)Nc2cc(C)on2)n1 [4-[4-(2-methoxyphenyl)-6-(trifluoromethyl)pyrimidin-2-yl]sulfonyl-N-(5-methyl-1,2-oxazol-3-yl)butanamide] | 13.2
